Data from ChEMBL document CHEMBL1201862, “PubChem BioAssay data set” (2004).
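Cultured in 96-well plates, cells were exposed to test compound for 48 hours across five concentrations. GI50 = concentration required for 50% inhibition of growth.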 Active and inactive are the calls of the source. Rule as the data show it: active = GI50 up to about 1.1 µM and inactive = higher.

Legend:
Test in all cases: growth of human tumour cells (NCI), 48 h
CAKI-1 = tested on: CAKI-1
SNB-75 = tested on: SNB-75
UACC-62 = tested on: UACC-62
A498 = tested on: A498
CCRF-CEM = tested on: CCRF-CEM
OVCAR-3 = tested on: OVCAR-3
UO-31 = tested on: UO-31
MDA-MB-435 = tested on: MDA-MB-435
MDA-N = tested on: MDA-N
MDA-MB-231 = tested on: MDA-MB-231
MCF7 = tested on: MCF7
IGROV-1 = tested on: IGROV-1
OVCAR-5 = tested on: OVCAR-5
SF-539 = tested on: SF-539
HOP-62 = tested on: HOP-62
RPMI-8226 = tested on: RPMI-8226
M19-MEL = tested on: M19-MEL
NCI-H23 = tested on: NCI-H23
K562 = tested on: K562
SF-268 = tested on: SF-268

Measured: GI50

O=P1(O)c2ccccc2Nc2cc(C(F)(F)F)ccc21
inactive: CAKI-1 > 100 µM | SNB-75 > 100 µM | UACC-62 > 100 µM | A498 > 100 µM | CCRF-CEM > 100 µM | OVCAR-3 > 100 µM | UO-31 > 100 µM | MDA-MB-435 > 100 µM | MDA-N > 100 µM | MDA-MB-231 > 100 µM | MCF7 > 100 µM | IGROV-1 > 100 µM | OVCAR-5 > 100 µM | SF-539 > 100 µM | HOP-62 > 100 µM | RPMI-8226 > 100 µM | M19-MEL > 100 µM | NCI-H23 > 100 µM | K562 > 100 µM | SF-268 > 100 µM

O=C(/C=C/c1ccccc1O)C(c1ccccc1)c1ccccc1
inactive: CAKI-1 > 100 µM | SNB-75 20.1 µM | UACC-62 > 100 µM | A498 > 100 µM | CCRF-CEM 60.8 µM | OVCAR-3 > 100 µM | UO-31 > 100 µM | IGROV-1 > 100 µM | OVCAR-5 > 100 µM | SF-539 > 100 µM | HOP-62 > 100 µM | RPMI-8226 72.6 µM | M19-MEL > 100 µM | NCI-H23 > 100 µM | K562 78.5 µM | SF-268 > 100 µM

c1ccc2c(c1)C1=NCCN1c1ccccc1-2
inactive: CAKI-1 2.6 µM | SNB-75 3.47 µM | UACC-62 3.37 µM | A498 3.18 µM | CCRF-CEM 1.64 µM | OVCAR-3 2.95 µM | UO-31 2.77 µM | IGROV-1 3.44 µM | OVCAR-5 3.47 µM | SF-539 2.78 µM | HOP-62 3.25 µM | RPMI-8226 2.32 µM | M19-MEL 3.44 µM | NCI-H23 2.72 µM | SF-268 3.46 µM

O=C1CCCC(O)=C1SC1=C(O)CCCC1=O
inactive: CAKI-1 94.2 µM | SNB-75 77.4 µM | UACC-62 46.9 µM | A498 39.2 µM | CCRF-CEM 71.6 µM | OVCAR-3 > 100 µM | UO-31 98.2 µM | IGROV-1 > 100 µM | OVCAR-5 > 100 µM | SF-539 > 100 µM | RPMI-8226 > 100 µM | M19-MEL > 100 µM | NCI-H23 > 100 µM | K562 51.4 µM | SF-268 > 100 µM

COc1ccc(S(=O)(=O)N/N=C/C(=O)O)cc1
inactive: CAKI-1 458 µM | SNB-75 708 µM | UACC-62 327 µM | A498 495 µM | CCRF-CEM 176 µM | OVCAR-3 495 µM | UO-31 631 µM | MDA-MB-435 407 µM | MDA-N 760 µM | MDA-MB-231 822 µM | MCF7 409 µM | IGROV-1 427 µM | OVCAR-5 873 µM | SF-539 519 µM | HOP-62 678 µM | RPMI-8226 269 µM | M19-MEL 955 µM | NCI-H23 369 µM | K562 501 µM | SF-268 384 µM
